# From ChEMBL document CHEMBL3046516, “Efficacy of neem limonoids on Cnaphalocrocis medinalis (Guenee) (Lepidoptera: Pyralidae) the rice leaffolder” (2005)
# Experiments:
# [1] = test system: Cnaphalocrocis medinalis; experiment: Antifeedant activity against 4 hr starved fifth-instar larval stage of Cnaphalocrocis medinalis infested compound-treated rice leaves assessed as approximate digestibility at 1 ppm measured every 24 hr for 4 days by gravimetric method (reference value: 44.81 +/- 4.12%); type: functional
# [2] = test system: Cnaphalocrocis medinalis; experiment: Antifeedant activity against 4 hr starved fifth-instar larval stage of Cnaphalocrocis medinalis infested compound-treated rice leaves assessed as efficacy of conversion of digested food at 1 ppm measured every 24 hr for 4 days by gravimetric method (reference value: 46.45 +/- 4.12%); type: functional
# [3] = test system: Cnaphalocrocis medinalis; experiment: Antifeedant activity against 4 hr starved fifth-instar larval stage of Cnaphalocrocis medinalis infested compound-treated rice leaves assessed as consumption index at 1 ppm measured every 24 hr for 4 days by gravimetric method (reference value: 2.52 +/- 0.15 mg/mg/day); type: functional
# [4] = test system: Cnaphalocrocis medinalis; experiment: Antifeedant activity against 4 hr starved fifth-instar larval stage of Cnaphalocrocis medinalis infested compound-treated rice leaves assessed as relative growth rate at 1 ppm measured every 24 hr for 4 days by gravimetric method (reference value: 0.524 +/- 0.03 mg/mg/day); type: functional
# [5] = test system: Cnaphalocrocis medinalis; experiment: Antifeedant activity against 4 hr starved fifth-instar larval stage of Cnaphalocrocis medinalis infested compound-treated rice leaves assessed as efficacy of conversion of ingested food at 1 ppm measured every 24 hr for 4 days by gravimetric method (reference value: 20.81 +/- 1.58%); type: functional
# [6] = test system: Cnaphalocrocis medinalis; experiment: Antifeedant activity against 4 hr starved fifth-instar larval stage of Cnaphalocrocis medinalis infested compound-treated rice leaves assessed as relative consumption rate at 1 ppm measured every 24 hr for 4 days by gravimetric method (reference value: 0.524 +/- 0.03 mg/mg/day); type: functional
# [7] = test system: Cnaphalocrocis medinalis; experiment: Antifeedant activity against 4 hr starved fifth-instar larval stage of Cnaphalocrocis medinalis infested compound-treated rice leaves assessed as reduction in diet consumption after 12 hr by leaf cut-choice assay; type: functional, organism-based
# [8] = test system: Cnaphalocrocis medinalis; experiment: Antifeedant activity against 4 hr starved fifth-instar larval stage of Cnaphalocrocis medinalis infested compound-treated rice leaves assessed as feeding deterrence index at 2 ppm after 12 hr by leaf cut-choice assay (reference value: 0.05 +/- 0.003%); type: functional
Structure (SMILES),Activity [1] [%],Activity [2] [%],Activity [3] [mg/mg/day],Activity [4] [mg/mg/day],ECI [5] [%],Activity [6] [mg/mg/day],Activity [7],FDI [8] [%]
CC(=O)O[C@@H]1C[C@H]2C(C)(C)C(=O)C=C[C@]2(C)[C@H]2CC[C@]3(C)C(=CC(=O)[C@@]3(O)c3ccoc3)[C@@]21C [17-HYDROXYAZADIRADIONE],47.217,38.657,2.307,0.4197,18.247,0.957,Dose-dependent effect,23.6
C/C=C(\C)C(=O)O[C@H]1C[C@@H](OC(C)=O)[C@@]2(C(=O)OC)CO[C@H]3[C@@H](O)[C@@](C)([C@]45O[C@@]4(C)[C@@H]4C[C@H]5O[C@@H]5OC=C[C@@]54O)[C@H]4[C@]1(CO[C@]4(O)C(=O)OC)[C@@H]32 [AZADIRACHTIN A],52.717,12.357,0.427,0.0277,6.507,0.187,Dose-dependent effect,93.2
CC1(C)C(=O)C=C[C@]2(C)[C@H]3CC[C@@]4(C)[C@H](c5ccoc5)OC(=O)[C@H]5O[C@]54[C@]3(C)[C@H](O)C[C@@H]12 [DEACETYLGEDUNIN],48.457,36.127,2.207,0.3857,17.507,0.927,Dose-dependent effect,23.6
COC(=O)C[C@H]1[C@]2(C)C3=C(C)[C@H](c4ccoc4)C[C@H]3O[C@@H]2[C@H](O)[C@@H]2[C@]1(C)C(=O)C=C[C@@]2(C)C(=O)OC [DEACETYLNIMBIN],46.747,39.117,2.327,0.4247,18.287,0.957,Dose-dependent effect,21
CC(=O)O[C@@H]1C[C@H]2C(C)(C)C(=O)C=C[C@]2(C)[C@H]2CC[C@@]3(C)[C@H](c4ccoc4)OC(=O)[C@H]4O[C@]43[C@@]21C [GEDUNIN],46.457,43.157,2.357,0.4707,20.07,1.007,Dose-dependent effect,18.8
C/C=C(/C)C(=O)O[C@H]1C[C@@H](OC(C)=O)[C@@]2(C)CO[C@H]3[C@H]4O[C@@H]5C[C@@H](c6ccoc6)C(C)=C5[C@@]4(C)[C@H](CC(=O)OC)[C@]1(C)[C@@H]32 [SALANNIN],49.617,33.527,1.557,0.2577,16.627,0.557,Dose-dependent effect,49.6
